Among the data in ChEMBL document CHEMBL1159154, “Synthesis of new potent leukotriene B4 antagonists and their biological properties. 2” (Bioorg Med Chem Lett, 1994) are Activity, logD and IC50 values, retold here.

Active and inactive are the calls of the source. No cut-off for these calls is given here.

One series deals with Cavia porcellus. In words: In vivo inhibitory activity against LTB4-induced bronchoconstriction of guinea pig at dose of 5 mg/kg after 2 min of iv administration; relatively active. It counts as functional, organism-based. More on the design: dose 5 mg/kg.
Conditions: not given
Take `CCc1cc(C(C)=O)c(O)cc1OCc1cccc(C(=O)N[C@@H](CC(=O)O)C(=O)O)n1`: the Activity entry is “Weak activity”.

Test system in another series: not listed separately
Kind of series: Partition coefficient in n-octanol/phosphate buffer, at pH 7.4. It counts as physicochemical.
Conditions: not given
Consider `CCc1cc(C(C)=O)c(O)cc1OCc1cccc(C(=O)Nc2cccc(CC(=O)O)[n+]2[O-])n1`, for which the logD (as a rule, lipophilicity at a set pH, counting ionised and neutral species) came out at 0.8.
Still for that read-out and setting: under `CCc1cc(C(C)=O)c(O)cc1OCc1cccc(C(=O)N(CC)CCC(=O)O)n1` stands 0.1; under `CCc1cc(C(C)=O)c(O)cc1OCc1cccc(C(=O)Nc2nc(CC(=O)O)cs2)n1`, 1.9; under `CCc1cc(C(C)=O)c(O)cc1OCc1cccc(C(=O)N[C@@H](CC(=O)O)C(=O)O)n1`, -1.8.
On the same count and under the same terms, next, `CCc1cc(C(C)=O)c(O)cc1OCc1cccc(C(=O)N[C@@H](CO)C(=O)O)n1`: -0.3; `CCc1cc(C(C)=O)c(O)cc1OCc1cccc(C(=O)Nc2cccc(CC(=O)O)n2)n1`: 1.1; `CCc1cc(C(C)=O)c(O)cc1OCc1cccc(C(=O)NCCC(=O)O)n1`: 0.7.
Same read-out and setting: next, `CCc1cc(C(C)=O)c(O)cc1OCc1cncc(C(=O)Nc2nc(CC(=O)O)cs2)n1`: 0.6; `CCc1cc(C(C)=O)c(O)cc1OCc1cccc(C(=O)N(CC)CCO)n1`: 2.8.

The test system of a further series is Cavia porcellus. In words: In vivo inhibitory activity against LTB4-induced bronchoconstriction of guinea pig at dose of 5 mg/kg after 30 min of iv administration; Active. Also on record: dose 5 mg/kg. It counts as functional, organism-based.
Conditions: not given
Turning to `CCc1cc(C(C)=O)c(O)cc1OCc1cccc(C(=O)Nc2cccc(CC(=O)O)[n+]2[O-])n1`, the outcome was Active.
Consider `CCc1cc(C(C)=O)c(O)cc1OCc1cccc(C(=O)N(CC)CCC(=O)O)n1`, for which the result was Active.
Same read-out and setting: under `CCc1cc(C(C)=O)c(O)cc1OCc1cccc(C(=O)N[C@@H](CO)C(=O)O)n1` stands “Active”.

The next series is filed under the species Homo sapiens. Kind of series: Concentration required for inhibitory activity against human PMNLs chemotaxis. It counts as functional, organism-based. The conditions noted are these: PMNL.
On to `CCc1cc(C(C)=O)c(O)cc1OCc1cccc(C(=O)Nc2cccc(CC(=O)O)[n+]2[O-])n1`, for which 20 nM corresponded to half-maximal inhibition (IC50).
On the same count and under the same terms, next, `CCc1cc(C(C)=O)c(O)cc1OCc1nccc(C(=O)Nc2nc(CC(=O)O)cs2)n1`: 3000 nM; `CCc1cc(C(C)=O)c(O)cc1OCc1cccc(C(=O)Nc2nc(CC(=O)O)cs2)c1`: 5000 nM; `CCc1cc(C(C)=O)c(O)cc1OCc1ccc(C(=O)Nc2nc(CC(=O)O)cs2)cn1`: 700 nM.
For `CCc1cc(C(C)=O)c(O)cc1OCc1cccc(C(=O)N(CC)CCC(=O)O)n1`, the IC50 (commonly the concentration that inhibits the measured activity by half) came to 300 nM.
In the case of `CCc1cc(C(C)=O)c(O)cc1OCc1cccc(C(=O)NCC(=O)O)n1`, the IC50 was 12000 nM.
With `CCc1cc(C(C)=O)c(O)cc1OCc1cccc(C(=O)Nc2nc(CC(=O)O)cs2)n1`, the IC50 was 300 nM.
`CCc1cc(C(C)=O)c(O)cc1OCc1cccc(C(=O)N[C@@H](CC(=O)O)C(=O)O)n1` returned an IC50 of 900 nM.
On the same count and under the same terms, under `CCc1cc(C(C)=O)c(O)cc1OCc1cccc(C(=O)N[C@@H](CO)C(=O)O)n1` stands 300 nM; under `CCc1cc(C(C)=O)c(O)cc1OCc1cccc(C(=O)Nc2cccc(CC(=O)O)n2)n1`, 800 nM; under `CCCc1c(OCCCOc2ccc(C(C)=O)c(OC)c2CCC)ccc2c1OC(C(=O)O)CC2` (stereo not drawn) [SC-41390], 3300 nM.
Still for that read-out and setting: under `CCc1cc(C(C)=O)c(O)cc1OCc1cccc(C(=O)NCCC(=O)O)n1` stands 1000 nM.
`CCc1cc(C(C)=O)c(O)cc1OCc1cccc(C(=O)NCCO)n1` yielded an IC50 of 15000 nM.
The same measure, in the same setting: next, `CCc1cc(C(C)=O)c(O)cc1OCc1cncc(C(=O)Nc2nc(CC(=O)O)cs2)n1`: 10000 nM; `CCc1cc(C(C)=O)c(O)cc1OCc1cccc(C(=O)N(CC)CCO)n1`: 1000 nM.

For the next series, the system named is Cavia porcellus. Kind of series: In vivo inhibitory activity against LTB4-induced bronchoconstriction of guinea pig at dose of 5 mg/kg after 10 min of iv administration; Active. Type of series: functional, organism-based. Also on record: dose 5 mg/kg.
Conditions: not given
For `CCc1cc(C(C)=O)c(O)cc1OCc1cccc(C(=O)Nc2cccc(CC(=O)O)[n+]2[O-])n1`, the outcome was Active.
In the case of `CCc1cc(C(C)=O)c(O)cc1OCc1cccc(C(=O)N(CC)CCC(=O)O)n1`, the result was Active.
With `CCc1cc(C(C)=O)c(O)cc1OCc1cccc(C(=O)N[C@@H](CO)C(=O)O)n1`, the outcome was Active.
Take `CCc1cc(C(C)=O)c(O)cc1OCc1cccc(C(=O)NCCC(=O)O)n1`: the result was Active.

A further series relates to Cavia porcellus. Kind of series: In vivo inhibitory activity against LTB4-induced bronchoconstriction of guinea pig at dose of 40 mg/kg after 60 min of po administration; Active. It counts as functional, organism-based. Also on record: dose 40 mg/kg.
Conditions: not given
On to `CCc1cc(C(C)=O)c(O)cc1OCc1cccc(C(=O)N(CC)CCC(=O)O)n1`, for which the outcome was Active.

Another series deals with Cavia porcellus. In words: In vivo inhibitory activity against LTB4-induced bronchoconstriction of guinea pig at dose of 40 mg/kg after 60 min of po administration; relatively active. More on the design: dose 40 mg/kg.
Conditions: not given
It counts as functional, organism-based.
Take `CCc1cc(C(C)=O)c(O)cc1OCc1cccc(C(=O)N[C@@H](CO)C(=O)O)n1`: the Activity entry was “Weak activity”.

The test system of a further series is Cavia porcellus. Kind of series: In vivo inhibitory activity against LTB4-induced bronchoconstriction of guinea pig at dose of 5 mg/kg after 10 min of iv administration; relatively active.
Conditions: not given
It counts as functional, organism-based. Also on record: dose 5 mg/kg.
Regarding `CCc1cc(C(C)=O)c(O)cc1OCc1cccc(C(=O)Nc2nc(CC(=O)O)cs2)n1`, the Activity entry was “Weak activity”.
Still for that read-out and setting: under `CCc1cc(C(C)=O)c(O)cc1OCc1cccc(C(=O)N[C@@H](CC(=O)O)C(=O)O)n1` stands “Weak activity”; under `CCc1cc(C(C)=O)c(O)cc1OCc1cncc(C(=O)Nc2nc(CC(=O)O)cs2)n1`, “Weak activity”.

The subject of another series is Cavia porcellus. Kind of series: In vivo inhibitory activity against LTB4-induced bronchoconstriction of guinea pig at dose of 5 mg/kg after 2 min of iv administration; Active. Also on record: dose 5 mg/kg.
Conditions: not given
Type of series: functional, organism-based.
Turning to `CCc1cc(C(C)=O)c(O)cc1OCc1cccc(C(=O)Nc2cccc(CC(=O)O)[n+]2[O-])n1`, the result was Active.
Take `CCc1cc(C(C)=O)c(O)cc1OCc1cccc(C(=O)N(CC)CCC(=O)O)n1`: the result was Active.
Take `CCc1cc(C(C)=O)c(O)cc1OCc1cccc(C(=O)N[C@@H](CO)C(=O)O)n1`: the result was Active.
`CCc1cc(C(C)=O)c(O)cc1OCc1cccc(C(=O)NCCC(=O)O)n1`: the outcome was Active.
Still for that read-out and setting: under `CCc1cc(C(C)=O)c(O)cc1OCc1cncc(C(=O)Nc2nc(CC(=O)O)cs2)n1` stands “Active”; under `CCc1cc(C(C)=O)c(O)cc1OCc1cccc(C(=O)N(CC)CCO)n1`, “Active”.
